# System: bovine cardiac myofibrils
# Assay: Myofibril assay: PK/LDH-coupled steady-state ATPase activity of skinned bovine cardiac myofibrils
# Format: biochemical
# Details: Ca2+ activating to 75% of maximal rate
# Method in brief: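 Steady-state ATPase of detergent-skinned bovine left-ventricular myofibrils (1 mg/mL), PK/LDH-coupled NADH read at 340 nm, in PIPES/MgCl2 buffer pH 6.8 with 50 μM ATP, 0.6 mM EGTA and CaCl2 set for 50% or 75% activation. Inhibition of activity measured.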
row,Compound,CDMF75 IC15 [µM]
1,"CC(=O)N1CC2(C1)C(=O)N(c1ncc(C(F)F)cc1F)CC(=O)N2[C@@H](C)c1ccc(Cl)cc1 [Compound 564, (S)-2-acetyl-5-(1-(4-chlorophenyl)ethyl)-8-(5-(difluoromethyl)-3-fluoropyridin-2-yl)-2,5,8-triazaspiro[3.5]nonane-6,9-dione]",13.0
2,"CC(=O)N1CC2(C1)C(=O)N(c1ncc(C(F)(F)F)cc1F)CC(=O)N2[C@@H](C)c1ccc(Cl)cc1 [Compound 565, (S)-2-acetyl-5-(1-(4-chlorophenyl)ethyl)-8-(3-fluoro-5-(trifluoromethyl)-pyridin-2-yl)-2,5,8-triazaspiro[3.5]nonane-6,9-dione]",17.8
3,"C[C@@H](c1ccc(Cl)cc1)N1C(=O)CN(c2ncc(Cl)cc2F)C(=O)C12CN(CC(F)F)C2 [Compound 566, (S)-8-(5-chloro-3-fluoro-pyridin-2-yl)-5-(1-(4-chlorophenyl)ethyl)-2-(2,2-difluoroethyl)-2,5,8-triazaspiro[3.5]nonane-6,9-dione]",4.0
4,"COC(=O)N1CC2(C1)C(=O)N(c1ncc(Cl)cc1F)CC(=O)N2[C@@H](C)c1ccc(Cl)cc1 [Compound 567, methyl (S)-8-(5-chloro-3-fluoropyridin-2-yl)-5-(1-(4-chlorophenyl)ethyl)-6,9-dioxo-2,5,8-triazaspiro-[3.5]nonane-2-carboxylate]",1.2
5,"C[C@@H](c1ccc(Cl)cc1)N1C(=O)CN(c2ncc(Cl)cc2F)C(=O)C12CN(C=O)C2 [Compound 568, (S)-8-(5-chloro-3-fluoro-pyridin-2-yl)-5-(1-(4-chlorophenyl)ethyl)-6,9-dioxo-2,5,8-triazaspiro-[3.5]nonane-2-carbaldehyde]",1.2
6,"C[C@@H](c1ccc(Cl)cc1)N1C(=O)CN(c2ncc(Cl)cc2F)C(=O)C12CN(C(=O)OCC(F)F)C2 [Compound 569, 2,2-difluoroethyl (S)-8-(5-chloro-3-fluoropyridin-2-yl)-5-(1-(4-chlorophenyl)-ethyl)-6,9-dioxo-2,5,8-triazaspiro[3.5]nonane-2-carboxylate]",2.6
7,"CC(=O)N1CC2(C1)C(=O)N(c1ncc(Cl)cc1F)CC(=O)N2[C@@H](C)c1ccc(C(F)(F)F)cc1 [Compound 570, (S)-2-acetyl-8-(5-chloro-3-fluoropyridin-2-yl)-5-(1-(4-(trifluoromethyl)phenyl)-ethyl)-2,5,8-triazaspiro-[3.5]nonane-6,9-dione]",2.2
8,"CC(=O)N1CC2(C1)C(=O)N(c1ncc(Br)cc1F)CC(=O)N2[C@@H](C)c1ccc(C(F)(F)F)cc1 [Compound 571, (S)-2-acetyl-8-(5-bromo-3-fluoropyridin-2-yl)-5-(1-(4-(trifluoromethyl)phenyl)-ethyl)-2,5,8-triazaspiro-[3.5]nonane-6,9-dione]",2.0
9,"CC(=O)N1CCC2(CC1)C(=O)N(c1ncc(Cl)cc1F)CC(=O)N2Cc1ccc(C(F)(F)F)cc1 [Compound 572, 9-acetyl-4-(5-chloro-3-fluoropyridin-2-yl)-1-(4-(trifluoromethyl)benzyl)-1,4,9-triazaspiro[5.5]-undecane-2,5-dione]",7.4
10,"CC1(CO)C(=O)N(c2ncc(Cl)cc2F)CC(=O)N1Cc1ccc(C(F)(F)F)cc1 (centres unmarked) [Compound 573, 1-(5-chloro-3-fluoropyridin-2-yl)-3-(hydroxymethyl)-3-methyl-4-(4-(trifluoro-methyl)benzyl)piperazine-2,5-dione]",6.5
11,"O=C1CN(c2ncc(Cl)cc2F)C(=O)C2(CC(F)C2)N1Cc1ccc(C(F)(F)F)cc1 (centres unmarked) [Compound 574, 8-(5-chloro-3-fluoropyridin-2-yl)-2-fluoro-5-(4-(trifluoromethyl)benzyl)-5,8-diazaspiro[3.5]nonane-6,9-dione]",0.3

# From patent US11414424B2, “Cardiac sarcomere inhibitors” (Cytokinetics, Inc., priority 2018, dated 2022)
